# Measurements published in US12441693B2, “Targeting STAT sumoylation to enhance immune responses” (THE GEORGE WASHINGTON UNIVERSITY, priority 2018, dated 2025).
# Legend:
# [1] = tested on: primary human CD4 T cells; assay: Viability of primary CD4 T cells in the screening; format: cell-based; conditions: at the concentration tested
# Procedure: It was observed that the ability of different benzotriazole and benzotriazin derivatives to increase STAT5 phosphorylation correlated with the ability of the compounds to induce the expression of CD69 (a STAT5 target gene) (FIG. 2A) but not CD25 (FIG. 2B) in the surface of human CD4 T cells. Based on these findings, a primary cell screening assay was set up according to FIG. 2C to identify derivatives with similar activity. As an example, flow cytometry was performed to isolated activated cells (FIG. 2D), which were expanded in the presence of DMSO or a compound of interest (FIG. 2E), and screened for changes in the expression of CD69 (FIG. 2F).
# [2] = tested on: NK cells; conditions: single agent, 48 hours
# Procedure: To determine if STAT SUMOylation increases Gzm B expression in NK cells, isolated human NK cells were analyzed after a 3-day incubation with either IL-2, IL-15, HODHBt, IL-2+IL-15, HODHBt+IL-2, HODHBt+IL-15, or HODHBt+IL-2+IL-15.
# To further characterize the effects of STAT SUMOylation inhibition in NK cell function, primary human NK cells were isolated and cultured with IL-15 in the presence or absence of HODHBt. 48 hours later, cells were phenotyped by flow cytometry.
# To characterize the induction of other proteins known to be important for the cytolytic activity of NK cells, primary human NK cells were isolated from 6 male and 6 female donors and cultured with IL-15 in the presence or absence of HODHBt. 48 hours later, levels of Granzyme A (FIG. 18A), Perforin (FIG. 18B), Granulysin (FIG. 18C), TRAIL (FIG. 18D) and Fas ligand (FASL) (FIG. 18E) were analyzed by flow cytometry.
# Antibody-dependent cell-mediated cytotoxicity (ADCC) is mediated by the recognition of an antibody bound to a cell through an Fc receptor present in NK cells, mostly CD16 (FCGR3A). To address whether inhibiting STAT SUMOylation alters CD16 expression in the surface of NK cells, freshly isolated NK cells were treated with either IL-15, HODHBt or a combination of both for 48 hours and surface expression of CD16 was measured by flow cytometry.
# Since IL-15 activated STATs, it was hypothesized that STATs, and in particular STAT1, was controlling expression of CXCR5 (C—X—C Motif Chemokine Receptor 5) and that inhibiting STAT SUMOylation enhances CXCR5 expression and promotes migration towards a CXCL13 (C—X—C Motif Chemokine Ligand 13) gradient. CXCL13 controls homing of lymphocytes to follicles in lymph nodes; however whether this mechanism of regulation exists in human NK cells and whether IL-15 controls expression were unknown. To address which one of the two scenarios was potentially playing a role in the presence of NK cells within the follicles, human NK cells were treated with IL-15, HODHBt or a combination of both for 48 hours. Surface expression of CXCR5 and viability were next measured by flow cytometry.
# To phenotype the cells, 1×10^5 cells were stained with a viability dye (Fixable Viability Dye eFluor 450, Affymetrix, eBioscience, San Diego, CA) and the surface marker-specific mAb specific for human: PE-anti-CD25 (Caltag, Burlingame, CA) and PE-anti-CD69 (Caltag, Burlingame, CA) followed by flow cytometric analysis in a BD FACScanto II flow cytometer using the FACSDiva software (Becton Dickinson, Mountain View, CA) and analyzed using FlowJo (Tree Star Inc., Ashland, OR).
# [3] = tested on: K562; assay: NK cell killing of K562 cells, E:T 1:1, 4 hours; format: cell-based, human; conditions: NK cells pretreated with single agent, E:T 1:1, 4 hours
# Procedure: It was therefore hypothesized that inhibiting STAT SUMOylation may enhance the ability of IL-15 stimulated NK cells to clear the HIV latent reservoir. To test the hypothesis, NK cells were treated with DMSO, IL-15-stimulated, treated with HODHBt or IL-15-stimulated and treated with HODHBt. Cells were then tested in their ability to kill the erythroleukemia cell line K562, which lack MHC-I. In an experiment, the NK cells from two donors were co-cultured with K562 at an E:T ratio of 1:1 for 4 hours (FIG. 19A). NK cells were pretreated with IL-15, HODHBt, or a combination of both.
Compound,toxicity / viability of primary CD4 T cells [1],surface expression of CD69 on NK cells [2],surface expression of CXCR5 on NK cells [2],"expression of Granzyme A, Perforin, Granulysin, TRAIL and FASL in NK cells ([2]; 6 male and 6 female donors)",expression of GZMB in NK cells ([2]; vs media control),killing of K562 by pretreated NK cells [3]
CC(C)(C)OC(=O)NCc1ccc(C(=O)On2nnc3ccccc3c2=O)cc1 [BIN024],high levels of toxicity,,,,,
"IL-15: interleukin-15 (IL-15), cytokine",,induced the surface expression of CD69,induced surface expression of CXCR5,induced the expression of all these genes,increased the expression of GZMB,induced increase killing of K562 over a 4-hour period
